US11214803B2, “Modulators of YAP1 expression” (Ionis Pharmaceuticals, Inc., priority 2019, dated 2022)
Where “and” joins values, the source holds several entries; their conditions need not be identical. Equal values may be shown once. Strand notation (5' to 3'): a small letter for the sugar, then the base; units joined by * are phosphorothioate-linked, units joined directly phosphodiester-linked; [ ] holds rarer units or linkages, { } end groups; capitals alone tell only the bases. k = constrained ethyl (cEt); [5mC] = 5-methylcytosine; d = 2'-deoxy (DNA)

Tests used:
Yap1 mRNA [1] = test: Dose-dependent inhibition of human Yap1 in SNU-449 cells (Example 9, RTS36584); assay type: cell-based; settings: free uptake; for % UTC (Yap1 mRNA): approximately 48 hours; for IC50: linear regression on a log/linear plot
Method in brief: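 Read-out was Yap1 mRNA (primer-probe RTS36584) normalised to total RNA by RIBOGREEN, given as % of untreated cells, with IC50 fitted by linear regression of log/linear data. Oligonucleotides were dosed by free uptake to SNU-449 cells, 10,000/well, for ~48 h.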

[2] = Tolerability in Sprague-Dawley rats, body and organ weights (Example 22); assay type: in vivo; settings: male Sprague-Dawley rats, 50 mg/kg s.c. weekly for 6 weeks (7 doses)
Experimental: Terminal body weight was measured prior to necropsy. Ionis oligonucleotides that caused any changes in organ weights outside the expected range for modified oligonucleotides were excluded from further studies.

SCC25 cells = test: Cell proliferation assay in SCC25 cells, CellTiter-Glo (Example 25); assay type: cell-based, human; settings: free uptake, 144 hours
Experimental: Modified oligonucleotides described in the studies above were tested at various doses in squamous cell carcinoma cell SCC25. A control oligonucleotide 792169 (a 3-10-3 cET gapmer with a full phosphorothioate backbone, […], designated herein as SEQ ID No.: 2940; is not complementary to any known human gene) was also tested.
Cultured SCC25 cells at a density of 1,000 cells/well were treated using free uptake with modified oligonucleotides diluted to concentrations described in the tables below. After approximately 144 hours, cell proliferation was measured using the luminescent cell viability CellTiter-Glo® 2.0 Assay (Promega). Results are presented in the tables below as percent control of the amount of luminescence in samples treated with modified oligonucleotides relative to untreated control cells (% UTC).

Yap1 mRNA [3] = test: Inhibition of human Yap1 mRNA in epidermoid carcinoma A-431 xenograft tumors (Example 27); assay type: in vivo; settings: A-431 xenografts in NCr-Foxn1nu mice, 6-8 hours post final dose, relative to PBS
Experimental: An epidermoid carcinoma A-431 xenograft tumor model was used to evaluate activity of modified oligonucleotides targeted to human Yap1. Five million A-431 cells in 30% matrigel were implanted subcutaneously into the flanks of female NCr-Foxn1nu mice (from Taconic) at 4-6 weeks of age. When tumors reached an average volume of 40 mm^3, approximately two weeks post-implantation, groups of four mice each were administered at either 25 mg/kg or 50 mg/kg daily with modified oligonucleotides for […] (5 doses). Tumors were collected 6-8 hours post final dose and tested for Yap1 mRNA knockdown by RT-qPCR. Yap1 mRNA levels were measured as previously described using the Human Yap1 primer-probe set RTS4814. Yap1 mRNA levels were normalized to actin-beta content, as measured by primer probe set RTS5002. Results are presented in the tables below as percent control of the amount of Yap1 mRNA relative to PBS treated animals (% control).

Yap1 mRNA [4] = test: Inhibition of human Yap1 mRNA in squamous cell carcinoma CAL27 xenograft tumors (Example 28); assay type: in vivo; settings: CAL27 xenografts in NCr-Foxn1nu mice, relative to PBS treated
Experimental: A squamous cell carcinoma CAL27 xenograft tumor model was used to evaluate activity of modified oligonucleotides targeted to human Yap1. Five million CAL27 cells in 30% matrigel were implanted subcutaneously into the flanks of female CrTac:NCr-Foxn1nu mice (from Taconic) at 4-6 weeks of age. Groups of four mice each were administered with either 15 mg/kg or 30 mg/kg of modified oligonucleotides daily for five days after tumor size had reached ˜100 mm^3 (about 3 weeks post implantation). Tumors were collected and tested for Yap1 mRNA knockdown by RT-qPCR. Yap1 mRNA levels were measured as previously described using the Human Yap1 primer-probe set RTS4814. Yap1 mRNA levels were normalized to actin-beta content, as measured by primer probe set RTS5002. Results are presented in the tables below as percent control of the amount of Yap1 mRNA relative to PBS treated […].

[5] = Cynomolgus monkey tolerability, body and organ weight measurements (Example 34); assay type: in vivo; settings: cynomolgus monkeys, 35 mg/kg subcutaneously; for Heart weight / Kidney weight / Liver with gallbladder weight / Spleen weight: necropsy; for Terminal Body Weight: prior to necropsy
Experimental: Cynomolgus monkeys were treated with Ionis modified oligonucleotides selected from studies described in the Examples above. Modified oligonucleotide tolerability was evaluated.
During the study period, the monkeys were observed twice daily for signs of illness or distress. Any animal experiencing more than momentary or slight pain or distress due to the treatment, injury or illness was treated by the veterinary staff with approved analgesics or agents to relieve the pain after consultation with the Study Director. Any animal in poor health or in a possible moribund condition was identified for further monitoring and possible euthanasia. Scheduled euthanasia of the animals was conducted on day 86 approximately 48 hours after the last dose by exsanguination while under deep anesthesia. The protocols described in the Example were approved by the Institutional Animal Care and Use Committee (IACUC).
To evaluate the effect of Ionis oligonucleotides on the overall health of the animals, body and organ weights were measured. Terminal body weight was measured prior to necropsy.

[6] = Cynomolgus monkey tolerability, pro-inflammatory proteins analysis, Complement C3 and CRP (Example 34); assay type: in vivo; settings: cynomolgus monkeys, 35 mg/kg subcutaneously; for CRP: day 44
Experimental: To evaluate any inflammatory effect of Ionis oligonucleotides in cynomolgus monkeys, blood samples were taken for analysis. The monkeys were fasted overnight prior to blood collection. On day 42 (pre-dose and 24 hours post-dose), approximately 0.8 mL of blood was collected from each animal and put into tubes without anticoagulant for serum separation. […] Complement C3 were measured using a Toshiba 120 FR NEO chemistry analyzer (Toshiba Co., Japan). […] Another marker of inflammation, C-Reactive Protein (CRP) was tested together with the clinical chemistry parameters tested for liver function above.

[7] = cynomolgus monkey, in vivo, sc, 35 mg/kg

| Substance | % UTC (Yap1 mRNA) (Yap1 mRNA [1]; 31.3 nM) | % UTC (Yap1 mRNA) (Yap1 mRNA [1]; 125.0 nM) | % UTC (Yap1 mRNA) (Yap1 mRNA [1]; 500.0 nM) | % UTC (Yap1 mRNA) (Yap1 mRNA [1]; 2000.00 nM) | IC50 (Yap1 mRNA [1]) | cell proliferation (luminescence) % UTC (SCC25 cells; 0.04 μM) | cell proliferation (luminescence) % UTC (SCC25 cells; 0.2 μM) | cell proliferation (luminescence) % UTC (SCC25 cells; 1 μM) | cell proliferation (luminescence) % UTC (SCC25 cells; 5 μM) | Yap1 mRNA in tumors, % control (Yap1 mRNA [3]; 25 mpk daily (5 doses)) | Yap1 mRNA in tumors, % control (Yap1 mRNA [3]; 50 mpk daily (5 doses)) | Yap1 mRNA in tumors, % UTC (Yap1 mRNA [4]; 15 mg/kg daily for five days) | Yap1 mRNA in tumors, % UTC (Yap1 mRNA [4]; 30 mg/kg daily for five days) | Heart weight [5] | Kidney weight [5] | Liver with gallbladder weight [5] | Spleen weight [5] | Terminal Body Weight [5] | Complement C3 ([6]; Day 42 (pre-dose)) | Complement C3 ([6]; day 42 (24 hr post-dose)) | other results |
| --- | --- | --- | --- | --- | --- | --- | --- | --- | --- | --- | --- | --- | --- | --- | --- | --- | --- | --- | --- | --- | --- |
| 1197270 (TTAAAGTGTATGTCAG; cEt gapmer with 2'-OMe nucleoside, phosphorothioate, further chemistry not given here) [compound 1197270] | 43 % UTC | 23 % UTC | 8 % UTC | 2 % UTC | < 30 nM | 75 % UTC | 40 % UTC | 22 % UTC | 14 % UTC | 57 % control | 38 % control | 55 % UTC | 38 % UTC | 10 g | 17 g | 73 g | 4 g | 2852 g | 103 mg/dL | 86 mg/dL | Kidney weight ([2]; end of study): 3.6 g; Liver weight ([2]; end of study): 15 g; Spleen weight ([2]; end of study): 2.0 g; body weight ([2]; terminal, prior to necropsy): 374 g; CRP [6]: 9.8 mg/L; A/G ratio [7]: 1.2 |
| 1198439 (AGTGTATGTCAGAAGA; sugar, 5-methylcytosine, phosphorothioate modifications, further chemistry not given here) [compound 1198439] | 44 % UTC | 21 % UTC | 5 % UTC | 2 % UTC | < 30 nM | 62 % UTC | 30 % UTC | 22 % UTC | 16 % UTC | 37 % control | 19 % control | 66 % UTC | 38 % UTC | 10 g | 15 g | 67 g | 3 g | 2959 g | 99 mg/dL | 94 mg/dL | CRP [6]: 2.9 mg/L; A/G ratio [7]: 1.4 |
| 1198440 (AAGTGTATGTCAGAAG; cEt, 2'-MOE, 5-methylcytosine, phosphorothioate modifications, further chemistry not given here) [compound 1198440] | 55 % UTC | 23 % UTC | 6 % UTC | 2 % UTC | < 30 nM | 73 % UTC | 33 % UTC | 22 % UTC | 16 % UTC | 32 % control | 21 % control | 67 % UTC | 41 % UTC | 11 g | 15 g | 65 g | 3 g | 2919 g | 95 mg/dL | 88 mg/dL | CRP [6]: 4.8 mg/L; A/G ratio [7]: 1.4 |
| CGCCGATAAGGTACAC (cEt gapmer, phosphorothioate backbone, further chemistry not given here) [ION 792169, reference compound] |  |  |  |  |  | 103 % UTC | 104 % UTC | 100 % UTC | 88 % UTC |  |  |  |  |  |  |  |  |  |  |  |  |
| 958499 (ATTAGAGTATGTGGCA; 3-10-3 cEt gapmer, further chemistry not given here) [compound 958499] | 93 % UTC | 47 % UTC | 19 % UTC | 7 % UTC | 200 nM | 76 % UTC | 42 % UTC | 25 % UTC | 14 % UTC | 49 % control | 29 % control | 68 % UTC | 53 % UTC | 10 g | 15 g | 68 g | 4 g | 2894 g | 112 mg/dL | 89 mg/dL | CRP [6]: 9.9 mg/L; A/G ratio [7]: 1.3 |
| 715487 (kA*kT*kT*dA*d[5mC]*dT*dT*d[5mC]*dA*dT*dA*dG*d[5mC]*kT*kT*kA) [compound 715487] |  | 47 % UTC and 44 % UTC and 56 % UTC and 53 % UTC and 73 % UTC and 70 % UTC and 62 % UTC and 48 % UTC |  |  | 400 nM and 300 nM and 200 nM |  |  |  |  | 61 % control | 57 % control |  |  |  |  |  |  |  |  |  |  |
| 1076453 (GTAATATTGCAATCTG; 3-10-3 cEt gapmer, further chemistry not given here) [compound 1076453] | 67 % UTC | 29 % UTC | 8 % UTC | 1 % UTC | 100 nM | 81 % UTC | 40 % UTC | 23 % UTC | 15 % UTC | 55 % control | 25 % control | 69 % UTC | 46 % UTC | 11 g | 16 g | 72 g | 5 g | 2955 g | 101 mg/dL | 88 mg/dL | CRP [6]: 1.5 mg/L; A/G ratio [7]: 1.3 |
